Drawing on patent US6777431B2, “Non-convalent thrombin inhibitors” (Corvas International, Inc., priority 2001, dated 2004), this text covers Ki and IC50 for 18 molecules.

Each structure is given as a SMILES string.

By Ki is commonly meant a dissociation constant, usually derived from enzyme kinetics or from competition with a known ligand. For orientation: IC50 means the concentration that inhibits the measured activity by half.

The target in one assay is Thrombin (Homo sapiens, UniProt P00734). In words: Thrombin (fIIa) chromogenic substrate assay (Pefachrome t-PA). In kind it is biochemical. The settings on record: human a-thrombin 0.5 nM, Pefachrome t-PA 250 μM, 30 min preincubation, HBSA pH 7.5; Ki calculated from the IC50. As for the experimental part:
(§1) The ability of compounds of the present invention to act as a selective inhibitor of thrombin activity was assessed by determining the concentration of test-compound which inhibited the activity of this enzyme by 50%, (IC50) or by determining the Ki value, and comparing this value to that determined for all or some of the following related serine proteases: recombinant tissue plasminogen activator (rt-PA), plasmin, activated protein C, chymotrypsin, factor Xa and trypsin. Ki is calculated from the IC50.
(§2) The buffer used for all assays was HBSA (10 mM HEPES, pH 7.5, 150 mM sodium chloride, 0.1% bovine serum albumin).
The assay for IC50 or Ki determinations was conducted by combining in appropriate wells of a Corning microtiter plate, 50 microliters of HBSA, 50 microliters of the test compound at a specified concentration (covering a broad concentration range) diluted in HBSA (or HBSA alone for V0 (uninhibited velocity) measurement), and 50 microliters of the enzyme diluted in HBSA. Following a 30 minute incubation at ambient temperature, 50 microliters of the substrate at the concentrations specified below were added to the wells, yielding a final total volume of 200 microliters. The initial velocity of chromogenic substrate hydrolysis was measured by the change in absorbance at 405 nm using a Thermo Max® Kinetic Microplate Reader over a 5 minute period in which less than 5% of the added substrate was utilized. The concentration of added inhibitor which caused a 50% decrease in the initial rate of hydrolysis was defined as the IC50 value. Ki may be calculated from the IC50 value.
Enzyme activity was determined using the chromogenic substrate, Pefachrome t-PA (CH3SO2-D-hexahydrotyrosine-glycyl-L-Arginine-p-nitroaniline, obtained from Pentapharm Ltd.). The substrate was reconstituted in deionized water prior to use.
The initial velocity of Pefachrome t-PA hydrolysis was measured by the change in absorbance at 405 nm using a Thermo Max® Kinetic Microplate Reader over a 5 minute period in which less than 5% of the added substrate was utilized. The concentration of added inhibitor which caused a 50% decrease in the initial rate of hydrolysis was defined as the IC50 value. Ki was calculated from the IC50 value.
For the molecule `Cc1ccc(NS(=O)(=O)Cc2ccc(Cl)cc2)c(=O)n1CCCNc1ccncc1` [F], the Ki was no more than 100 nM. Consider `Cc1ccc(NS(=O)(=O)Cc2ccccc2)c(=O)n1CCCNc1ccncn1` [M], for which the Ki was no more than 100 nM. For the molecule `Cc1ccc(NS(=O)(=O)Cc2ccccc2)c(=O)n1CCCNc1ccc2cc[nH]c2c1` [I], the inhibitory constant (Ki) was no more than 100 nM. As to `Cc1cnc(NCC(F)(F)c2ccccc2)c(=O)n1CCCNc1ccncc1` [C], the inhibition constant Ki is no more than 100 nM. On to `Cc1ccc(NS(=O)(=O)Cc2ccccc2)c(=O)n1CCCn1ncc2ccc(N)cc21` [Q], for which the Ki is 300 to 2500 nM.

Take `Cc1ccc(NS(=O)(=O)Cc2ccccc2)c(=O)n1CCCNc1cccc(N)n1` [R]: the Ki is 300 to 2500 nM. With `Cc1ccc(NS(=O)(=O)Cc2ccc(Cl)cc2)c(=O)n1CCCNc1ccncc1F` [K], the inhibition constant Ki is no more than 100 nM. Take `Cc1ccc(NS(=O)(=O)Cc2ccccc2)c(=O)n1CCCNc1cccc2ncccc12` [P]: the inhibition constant (Ki) was 100 to 300 nM. Still for that read-out and setting: in the case of `Cc1cnc(NCC(F)(F)c2ccccc2)c(=O)n1CCNc1ccncc1` [B] it was no more than 100 nM; in that of `Cc1ccc(NS(=O)(=O)Cc2ccccc2)c(=O)n1CCCNc1ccncc1` [A], no more than 100 nM. For `Cc1ccc(NS(=O)(=O)Cc2ccccc2)c(=O)n1CCCN(C)c1ccncc1` [E], the Ki was no more than 100 nM. `Cc1ccc(NS(=O)(=O)Cc2ccccc2)c(=O)n1CCCNc1ccnc2ccccc12` [L]: the Ki was no more than 100 nM.

On to `Cc1ccc(NS(=O)(=O)Cc2ccccc2)c(=O)n1CCCNc1ccncc1F` [J], for which the Ki was no more than 100 nM. As for `Cc1ccc(NS(=O)(=O)Cc2ccccc2)c(=O)n1CCCNc1ncnc2[nH]cnc12` [G], the Ki was 100 to 300 nM. Same read-out and setting: the figure for `Cc1ccc(NS(=O)(=O)Cc2ccccc2)c(=O)n1CCCNc1ccc(N)nc1` [N] is 100 to 300 nM.

Take `Cc1ccc(NS(=O)(=O)Cc2ccccc2)c(=O)n1CCCNc1ccc2ncccc2c1` [H]: the inhibitory constant (Ki) is no more than 100 nM. Same read-out and setting: in the case of `Cc1cnc(NCCc2ccccc2)c(=O)n1CCCNc1ccncc1` [D] it was 100 to 300 nM; in that of `Cc1cnc(NCCCc2ccccc2)c(=O)n1CCCNc1ccncc1` [O], 100 to 300 nM.

In the next assay the target is T1, Trypsin (Bos taurus, UniProt P00760).
T1 construct: Purified (3×-crystallized; TRL3) bovine pancreatic trypsin was obtained from Worthington Biochemical Corp; purchased Worthington Biochemical Corp. TRL3; host or cells: bovine pancreas
T1 sequence (P00760 24-246): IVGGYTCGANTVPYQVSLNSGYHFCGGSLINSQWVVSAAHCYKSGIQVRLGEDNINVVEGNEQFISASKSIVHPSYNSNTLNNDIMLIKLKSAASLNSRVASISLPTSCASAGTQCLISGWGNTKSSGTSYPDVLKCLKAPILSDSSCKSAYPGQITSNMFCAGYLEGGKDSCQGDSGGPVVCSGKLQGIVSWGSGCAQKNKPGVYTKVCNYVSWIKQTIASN
In words: Trypsin chromogenic substrate assay (S-2222). Type of assay: biochemical. To be noted: bovine pancreatic trypsin 0.5 nM, S-2222 250 μM, HBSA pH 7.5. As for the experimental part: as §1, §2
The assay for IC50 or Ki determinations was conducted by combining in appropriate wells of a Corning microtiter plate, 50 microliters of HBSA, 50 microliters of the test compound at a specified concentration (covering a broad concentration range) diluted in HBSA (or HBSA alone for V0 (uninhibited velocity) measurement), and 50 microliters of the enzyme diluted in HBSA. […] The initial velocity of chromogenic substrate hydrolysis was measured by the change in absorbance at 405 nm using a Thermo Max® Kinetic Microplate Reader over a 5 minute period in which less than 5% of the added substrate was utilized. […] Ki may be calculated from the IC50 value. […]
With `Cc1ccc(NS(=O)(=O)Cc2ccccc2)c(=O)n1CCCNc1ccncc1` [A], the concentration for half-maximal inhibition (IC50) was in the range of 300 to 2500 nM.
